# Results from patent US20210275493A1, “IMMUNO-ONCOLOGY THERAPY USING ISOFLAVONE COMPOUNDS” (NOXOPHARM LIMITED, priority 2019, published 2021).
# Entries after “also recorded” stand apart in the source; their conditions may differ.
# How the values were obtained:
# [1] = tested on: A549 lung adenocarcinoma spheroids with PBMCs; test: A549 spheroid PBMC co-culture: microscopy and FACS; type: cell-based, human
# Protocol: (§1) Spheroids were generated using the liquid overlay technique. Therefore, a 96 well cell culture plate (Greiner) was precoated with 1.5% (w/v) agarose. For this, 0.75 g of agarose was diluted in 50 ml PBS and boiled for 15 min in a pressure cooker at full pressure, followed by another 10 min at lowest pressure level. 50 μl of agarose solution was added to each well of the 96 well plate and allowed to cool down at RT (under a cell culture hood). Tumor cells were trypsinized and adjusted to a cell suspension of 25.000 cells/ml in medium (RPMI 1640, 10% FCS, 1% penicillin/streptomycin). The outer wells of the 96 well plates were filled with PBS, and the remaining wells were filled with 200 μl cell suspension. Cell aggregation was triggered by centrifugation of the plate at 500× g, 5 min, RT. Plates were then maintained for 5 days in an incubator (37° C., humidified atmosphere). Medium was changed every two days by careful aspiration. Spheroid size was acquired with a Carl Zeiss Axiovert microscope and diameters were determined using AxioVision 40 software.
# (§2) PBMCs were isolated from buffy coats (DRK-Blutspendedients Baden-Würtemberg-Hessen, Institut für Transfusionsmedizin and Immunhämatologie, Frankfurt am Main, Germany) using Bicoll-Hypaque gradients. Two 50 ml Leukosep® tubes (Greiner) per buffy coat were filled with 15 ml lymphocyte separation medium (Sigma Aldrich) and centrifuged at 1000×g, 1 min, RT, to place the solution below the membrane. Afterwards 30 ml human blood from buffy coats was added, tubes were filled up to 50 ml with PBS/2 mM EDTA solution, and centrifuged at 500×g, 45 min, RT without break. After density gradient centrifugation, the intermediate white layer composed of mononuclear cells was transferred into a fresh sterile 50 ml tube and washed twice with PBS/2 mM EDTA. After RBC lysis (RBC lysis buffer: 135 mM NH4Cl, 10 mM NaHCO3, 0.1 mM EDTA; for 4 min at RT, stop with PBS) cells were diluted in RPMI 1640 medium (+10% FCS, 1% penicillin/streptomycin) at 2×10^6 cells/ml.
# (§3) PBMCs were activated with 25 μl/ml CD3/CD28 T cell activator cocktail (StemCell Technologies), and 50.000 pre-activated PBMCs/well were added to spheroids. Afterwards, co-cultures were stimulated with 1 μM or 10 μM idronoxil or DMSO for 3 days. After three days, samples were either harvested for downstream analysis or treated again with 1 μM or 10 μM idronoxil or DMSO±10 μg/ml anti-PD-1 antibody (BioXCell) or the isotype control for another 3 days. Spheroid size was acquired with a Carl Zeiss Axiovert microscope and diameters were determined using AxioVision 40 software. Spheroids were harvested by transferring 5 spheroids of each group into FACS tubes (BD Biosciences), followed by centrifugation (500× g, 5 min, 4° C.). After removing the supernatant, 100 μl Accutase (Sigma Aldrich) was added to the spheroids, followed by 15 min incubation at 37° C. and generation of single cell suspensions by shearing the cell suspension repeatedly trough pipetting using 100 μl filter pipette tips. After centrifugation (500×g, 5 min, 4° C.) and removal of supernatant, cells were blocked with 80 μl of 0.5% BSA/PBS and 2 μl FcR-blocking reagent (Miltenyi Biotec) for 15 min on ice. Thereafter, cells were stained with an antibody mix consisting of anti-human CD4 PE-CF594, anti-human CD8 APC-H7, anti-human TCRab FITC, anti-human CD33 BV510, anti-human CD45 AF700, anti-human CD279 APC, and anti-human CD274 BV421 (each from BD Biosciences) antibodies for 20 min on nice in the dark. After washing with 500 μl FACS Flow (BD Biosciences), cells were resuspended in 300 μl FACS Flow, 20 μL absolute count standard (Bangs Laboratory) were added to each sample, and samples were acquired using an LSR II/Fortessa flow cytometer (BD Biosciences). All Antibodies were previously titrated to determine optimal concentrations. Antibody-capturing CompBeads (BD Biosciences) were used to create the multi-color panel compensation matrix. […]
# [2] = tested on: NPC (C17/NPC43+ve) cells, C17 spheroid; test: 3D tumor spheroid apoptosis imaging (CellEvent Caspase-3/7); type: cell-based
# Protocol: (§4) For the generation of tumor spheroids in 3D, 200 μL/well of cell suspension in culture medium was seeded at cell densities of 20,000 cells/well. NPC (C17/NPC43+ve) cells were dispensed into Nunclon Sphera 96 wells plate (Thermo Fisher Scientific). The Nunclon Sphera surface was designed to cause minimal cell attachment with minimal extracellular matrix protein binding to the plate surfaces. Plates were incubated at 37° C. and 5% CO2 in RPMI supplemented with FBS and ROCK inhibitor.
# To mimic in vivo conditions, the cytotoxicity of idronoxil on NPC cells using three-dimensional (3D) tumor cultures was examined. The effect of increasing concentrations of idronoxil was monitored on apoptosis using fluorescent probes (non-toxic CellEvent Caspase-3/7 Green and LysoTracker Deep Red) in combination with bright-field microscopy to perform persistent real-time spheroid imaging. […] When LysoTracker was added to the spheroids, the staining pattern was complementary to that of CellEvent, with the LysoTracker constantly accumulating in the outer and presumably metabolically active layers of the spheroids.
# [3] = tested on: MCF-7 mammary carcinoma spheroids with PBMCs; test: MCF-7 spheroid PBMC co-culture: microscopy and FACS; type: cell-based, human
# Protocol: as §1, §2, §3
# [4] = tested on: T cells infiltrating C17/NPC43+ve spheroids; test: Flow cytometry of spheroid-infiltrating T cells (IN/OUT) in NPC spheroid/PBMC coculture; type: cell-based
# Protocol: (§5) For flow cytometry analyses, 8 wells/condition were seeded. OUT and IN compartments were isolated by first pooling the 8 cocultures wells in eppendorf tubes. Spheroids were gently resuspended and left to sediment to the bottom of the tubes. Supernatant cell suspension constituted the non-infiltrating immune cells (=OUT). These steps were repeated twice with Phosphate Buffer Saline (PBS) in order to separate the spheroids from the non-infiltrating immune cells. Spheroids were then trypsinized to obtain a single cell suspension (=IN) and further analyzed by flow cytometry.
# Differences in quantitative variables were analyzed by the Mann-Whitney U test when comparing 2 groups. A p value<0.05 was considered as statistically significant.
# (§6) The interactions between tumor spheroids and PBMCs through heterotypic cocultures was explored. Spheroids were generated from an NPC cell line cocultured with PBMCs obtained from healthy donors that were HLA-matched whenever possible. After coculture, lymphocyte tumor infiltration and tumor cell apoptosis were measured. The cellular compositions within infiltrated tumor spheroids by mechanically separating infiltrating cells (IN) and cells remaining in the medium (OUT) were studied. A description of the coculture experimental protocol is illustrated in FIG. 1.
# These findings support the use of idronoxil to induce immunomodulatory responses, and in combination with conventional chemotherapies, enhance antitumor immunity. […] Finally, additionally to the above findings the inventors detected a significant reduction in PD1^+ expression in total infiltrating memory cells compared to DMSO controls (mean 48.57±5.117 vs. mean 62.06±3.066; p=0.0086; FIG. 3). In contrast, significant up-regulation in PD1^+ expression in naïve infiltrated cells upon idronoxil treatment as compared to DMSO (mean 62.10±7.049 vs. mean 43.57±3.870; p=0.0017) was found.
# [5] = Clinical examples: plasma concentration after daily dosing; type: in vivo, human; settings: 800 mg daily dosage for a period of 7 days
# Protocol: An individual presents with metastatic castration resistant prostate cancer. […] The individual has not been prior treated with an […]. The individual is given 800 mg daily dosage of idronoxil for a period of 7 days to establish a plasma concentration of 350 ng/mL of idronoxil. The individual is then administered with an anti-PD-1 antibody according to the product information. The dosage cycle is repeated twice and the individual is assessed for response to anti PD-1 therapy.
# An individual presents with advanced melanoma, having been assessed at 12 weeks from first administration of an anti-CTLA-4 antibody as having stable disease and not having achieved a partial response. The individual is given 800 mg daily dosage of idronoxil for a period of 7 days to establish a plasma concentration of 350 ng/mL of idronoxil. The individual is then administered with an anti-CTLA-4 antibody according to the product information. The dosage cycle is repeated twice and the individual is assessed for response to anti-CTLA-4 therapy.
# [6] = tested on: NPC cell lines; test: In vitro exposure of NPC cell lines: T-cell chemokine expression; type: cell-based
# [7] = tested on: NPC cell line spheroids cocultured with PBMCs; test: Coculture of NPC tumor spheroids and PBMCs: PBMC infiltration; type: cell-based
# Protocol: as §4, §5, §6
# An increase in PBMCs infiltration in the tumor spheroids upon treatment was detected as early as 2 hours after the beginning of the experiment, while the number of infiltrated cells remained constant in the controls (DMSO) over 72 hours of coculture. […] Moreover, the CellEvent staining was performed on the coculture to confirm the induction of apoptosis and observed that spheroid infiltration was proportional to an active apoptosis process in tumor cells. […]
smiles,measurement,setting,value
"Oc1ccc(C2=Cc3ccc(O)cc3OC2)cc1 [idronoxil, 2H-1-Benzopyran-7-0,1,3-(4-hydroxyphenyl)]",3D spheroid size,"[1]; 1 μM, day 6",reduced
same,3D spheroid size,"[1]; 10 μM, day 3",reduces
same,immune activation (cluster formation),"[1]; 10 μM, day 3",induces or maintains
same,expression of PD1 on CD8+ T cells,"[1]; 10 μM, day 3, FACS",reduced
same,expression of PDL1 on myeloid cells,"[1]; 10 μM, day 3, FACS",reduced
same,immune activation (cluster formation),"[1]; 10 μM, day 6",maintains
same,invasion of the cells (into agarose),"[1]; 10 μM, day 6",reduced; also recorded: prevents
same,spheroid size,"[1]; 10 μM, day 6",reduced
same,expression of PD1 on both CD4+ and CD8+ T cells,"[1]; 10 μM, day 6, FACS",reduces
same,expression of PDL1 on myeloid cells,"[1]; 10 μM, day 6, FACS",reduces
same,immune cell infiltrates,"[1]; 10 μM, day 6, FACS",increased
same,"IC50 values, spheroid-derived cells in 3D versus 2D conditions",[2]; 3D vs 2D,comparable
same,IC50,"[2]; C17 spheroids, 3D culture, apoptosis by CellEvent Caspase-3/7, read-out: IC50 (3D CellEvent dose-response curve)",2100 nM
same,intensity of C17 spheroid staining with CellEvent,[2]; increasing concentrations of idronoxil,proportional to idronoxil concentrations
same,expression of PD1 on CD4+ T cells,"[3]; 10 μM, day 3, FACS",reduces
same,expression of PDL1 on myeloid cells,"[3]; 10 μM, day 3, FACS",reduces
same,number of myeloid cells,"[3]; 10 μM, day 3, FACS",reduces
same,3D spheroid size,"[3]; 10 μM, day 6",reduced
same,immune function of the cells (cluster formation),"[3]; 10 μM, day 6",maintained
same,number of tumor cells,"[3]; 10 μM, day 6, FACS",reduces
same,3D spheroid size,[3]; day 3,reduced
same,immune activation (cluster formation),[3]; day 3,induced or maintained
same,expression of PD1 on both CD4+ and CD8+ T cells,"[3]; day 6, especially at 10 μM, FACS",reduces
same,PDL1 expression by myeloid cells,"[3]; day 6, idronoxil in general, FACS",strongly reduces
same,double-positive (DP) T cells in the tumor structure,"[4]; CD3+ populations IN vs OUT, 72 hours",significant increase
same,PD1+ expression in naïve infiltrated cells (mean),"[4]; DMSO control 43.57±3.870, p=0.0017",62.10±7.049
same,PD1+ expression in total infiltrating memory cells (mean),"[4]; DMSO control 62.06±3.066, p=0.0086",48.57±5.117
same,proportions of CD45RO+ CD27+ memory cells among infiltrating DP T cells,[4]; compared to control,decreased proportions
same,proportions of CD45RO- CD27+ naïve cells among infiltrating DP T cells,[4]; compared to control,increased proportions
same,CD62L expression of tumor-infiltrating DP T cells,"[4]; compared to control, CCR7 not reduced",pronounced reduction
same,plasma concentration of idronoxil,[5],350 ng/mL
same,expression of T-cell chemokines,[6],"expression of the T-cell chemokines CXCL8, 9 and 10"
same,time at which increase in PBMCs infiltration was detected,[7]; after the beginning of the experiment,2 h
same,idronoxil-induced PBMC migration upon blockade of CXCL10,[7]; neutralizing antibodies added to tumor spheroid cultures,significantly reduced
same,influx of PBMC into the spheroids,"[7]; vs DMSO control, up to 72 hours of coculture",significantly increased
